The conditions of data set [1]: clinical trials; affecting taste sensation via the tongue; cited from earlier work.
Data set [2] concerns the target T1, human P2X2/3 receptors (Homo sapiens, UniProt P56373+Q9UBL9).
T1 construct: expressed in transfected cells; host or cells: human astrocytoma 1321N1 (1312N1 [sic])
T1 sequence (P56373 1-397): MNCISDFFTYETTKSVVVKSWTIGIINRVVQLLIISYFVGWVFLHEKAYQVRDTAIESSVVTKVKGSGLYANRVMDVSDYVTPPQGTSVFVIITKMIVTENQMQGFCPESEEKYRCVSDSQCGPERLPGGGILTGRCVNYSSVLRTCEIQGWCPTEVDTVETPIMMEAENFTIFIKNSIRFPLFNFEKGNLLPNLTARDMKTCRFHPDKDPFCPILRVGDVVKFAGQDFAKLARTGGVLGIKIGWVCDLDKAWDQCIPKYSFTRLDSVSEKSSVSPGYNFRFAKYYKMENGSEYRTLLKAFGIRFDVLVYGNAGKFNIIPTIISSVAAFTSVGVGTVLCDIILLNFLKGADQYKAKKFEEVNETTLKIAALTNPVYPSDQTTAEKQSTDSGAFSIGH
T1 sequence (Q9UBL9 1-471): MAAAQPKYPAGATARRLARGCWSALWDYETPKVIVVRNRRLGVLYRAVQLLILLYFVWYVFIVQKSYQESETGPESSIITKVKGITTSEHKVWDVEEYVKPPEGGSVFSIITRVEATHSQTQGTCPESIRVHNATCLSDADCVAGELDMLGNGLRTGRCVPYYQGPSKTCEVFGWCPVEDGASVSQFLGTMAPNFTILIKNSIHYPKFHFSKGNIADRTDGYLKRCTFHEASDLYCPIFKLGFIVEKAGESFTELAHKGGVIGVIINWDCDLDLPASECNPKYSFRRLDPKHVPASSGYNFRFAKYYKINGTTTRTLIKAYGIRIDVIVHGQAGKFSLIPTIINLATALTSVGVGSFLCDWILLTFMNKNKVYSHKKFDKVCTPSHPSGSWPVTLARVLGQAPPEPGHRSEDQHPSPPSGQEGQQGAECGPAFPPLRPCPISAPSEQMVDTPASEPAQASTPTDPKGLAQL
As to the kind of experiment: Intracellular calcium measurement, antagonist activity at human P2X2/3 receptors (hP2X23 1321N1), Fluo8. Type of data set: cell-based. A digest of the protocol:
(§1)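 Antagonism was assessed by decrease of the Fluo8 calcium signal after ATP challenge, with ATP dosed at the EC50 of whichever receptor was tested. Stable 1321N1 astrocytoma lines expressed either human P2X3 or both P2X2 and P2X3, and were dye-loaded 60 min before a 10 min compound incubation.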
Background: Calcium assays in cells follow changes in intracellular calcium, usually with a dye or a luminescent sensor.

Data set [3] deals with T2, human P2X3 receptor (Homo sapiens, UniProt P56373).
T2 sequence (P56373 1-397): T1 sequence (P56373 1-397)
As to the kind of experiment: Intracellular calcium measurement to assess antagonist activity at human P2X3 receptors (hP2X3 FLIPR). Type of data set: cell-based. The arrangement: expressed in transfected cells; host or cells: human astrocytoma 1321N1 (1312N1 [sic]). The following applies: head prints (1321N1); read-out: 1) hP2X3 IC50 [nM] (1321N1). A digest of the protocol:
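Human P2X3-expressing […] astrocytoma cells, Fluo-4-loaded, were preincubated with compound 30 min at 37 °C in HBSS/HEPES probenecid buffer (0.5 mM CaCl2, pH 7.4, 1% DMSO final). Agonist-evoked peak fluorescence over 90 s was normalised to DMSO and control wells; IC50 fitted from triplicates.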

The target in data set [4] is T2, human P2X3 receptor. As to the kind of experiment: Intracellular calcium measurement to assess antagonist activity at human P2X3 receptors (hP2X3 CHO), photina luminescence. Type of data set: cell-based. Also on record: expressed in transfected cells; host or cells: Chinese hamster ovary (CHO) cells. The following applies: column 2), CHO cells, agonist α,β-methylene-ATP at EC50. A digest of the protocol: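 Antagonism read as lowered photina luminescence after agonist stimulation in recombinant hP2X3/photina CHO cells. Cells seeded one day earlier (30 °C) and reconstituted with 5 μg/ml coelenterazine in 2 mM Ca-tyrode buffer for 3 h at 37 °C before measurement.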

In data set [5] the target is T2, human P2X3 receptor. As to the kind of experiment: Intracellular calcium measurement, antagonist activity at human P2X3 receptors (hP2X3 1321N1), Fluo8. Type of data set: cell-based. The arrangement: expressed in transfected cells; host or cells: human astrocytoma 1321N1 (1312N1 [sic]). The following applies: column 3); 1321N1 cells, human P2X3, Fluo8, agonist ATP at EC50. A digest of the protocol:
as §1

Some results are limits rather than exact numbers.

As to `COc1cc(C(C)C)c(Oc2cnc(N)nc2N)cc1S(N)(=O)=O` [AF-219], the “taste disturbances in treated subjects” value in data set [1] is “leads to taste disturbances”.

For `CN(C)CCN1Cc2c(n(CC(=O)Nc3ccc(F)cn3)c3cc(C(C)(C)C)nn3c2=O)C1=O` [Example 139, 2-{2-tert-butyl-6-[2-(dimethylamino)ethyl]-5,8-dioxo-5,6,7,8-tetrahydro-4H-pyrazolo[1,5-a]pyrrolo[3,4-d]pyrimidin-4-yl}-N-(5-fluoropyridin-2-yl)acetamide], the IC50 in data set [2] (column 4); 1321N1 cells, human P2X2/3, Fluo8, agonist ATP at EC50; read-out: 4) hP2X2/3 IC50 [nM] (1321N1)) is greater than 32000 nM; in data set [3], 237 nM; in data set [4] it was 420 nM; in data set [5], 400 nM. The “hP2X23/hP2X3* Selectivity (1321N1)” value in data set [2] (ratio of column 4) hP2X2/3 to column 3) hP2X3, 1321N1) is given as greater than 80.
